The values below come from patent US10905736B2, “Ezetimibe-associated ApoA-I mimetic peptides showing enhanced synergism” (The Regents of the University of California, priority 2016, dated 2021).

Assay [1] relates to LDLR null mice. In words: Plasma Serum Amyloid A (SAA) levels in LDLR null mice fed Western diet for two weeks. It is filed as in vivo, mouse. The settings on record: statement over the experiments of Example 3 (single agents four out of four, Combined Formulation three out four, Novel Method three out three experiments). As to the method:
The plasma from the mice in FIG. 1 was analyzed for SAA as described as described (see, e.g., Chattopadhyay et al. (2015) Pharma. Res. Per. 3: e00154; Chattopadhyay et al. (2016) J. Lipid. Res. 57: 832-847).
Female LDLR null mice age 5-8 months (n=20 per group) were fed standard mouse chow (Chow) or a Western diet high in cholesterol and fat (WD) or were fed WD+0.06% by weight of a freeze-dried concentrate of transgenic tomatoes expressing the apoA-I mimetic peptide 6F, which was prepared as previously described (see, e.g., Chattopadhyay et al. (2015) Pharma. Res. Per. 3: e00154; Chattopadhyay et al. (2016) J. Lipid Res. 57: 832-847; PCT Pub. Nos: WO 2013/148214 (PCT/US2013/031037), WO 2015/175968 (PCT/US2015/031134)) (Tg6F), or the mice were fed WD with Ezetimibe added to give a daily dose of 10 mg/kg body weight/day (WD+Ezetimibe), or the mice were fed WD with Tg6F added at 0.06% by weight plus Ezetimibe (each added separately to the diet) to give a daily dose of Ezetimibe of 10 mg/kg body weight; the Tg6F and Ezetimibe were mixed into WD as described previously (Chattopadhyay et al. (2016) J. Lipid. […] After feeding the diets for two weeks, the mice were bled and total plasma cholesterol levels were determined as described (Id.). […]

Assay [2] deals with mice. The settings on record: cited from earlier work.
Assay [3] has as its system Niemann-Pick C1-like 1 (NPC1L1) protein. The settings on record: by targeting NPC1L1; cited from earlier work.

“Also recorded” adds a separate entry of the source.

With `O=C1[C@H](CC[C@H](O)c2ccc(F)cc2)[C@@H](c2ccc(O)cc2)N1c1ccc(F)cc1` [Ezetimibe, (3R,4S)-1-(4-fluorophenyl)-3-[(3S)-3-(4-fluorophenyl)-3-hydroxypropyl]-4-(4-hydroxyphenyl)azetidin-2-one], the “plasma SAA levels” value in assay [1] is listed as “equally effective; also recorded: significantly decreased the levels”. In addition, the ED50 value in assay [2] is 700 µg/kg/day. For the same compound, the “transintestinal cholesterol efflux (TICE)” value in assay [3] was “promotes TICE”.
